Measurements published in patent US12006328B2, “Thieno[2,3-d]pyrimidin-4-one derivatives as NMDAR modulators and uses related thereto” (Emory University, priority 2014, dated 2024).
pEC50, pIC50: −log10 of the molar value.

What was measured:
Format in all cases: cell-based
[1] = target: GluN2B-containing NMDA receptors (Homo sapiens, UniProt Q13224); assay: Two-electrode voltage-clamp recordings from Xenopus laevis oocytes, GluN2B; settings: for I10 μM/ICONTROL (mean ± SEM, %) Glu N2B: 10 μM test compound with glutamate 100 μM and glycine 30 μM, Tables 1-5; for I10 μM/ICONTROL (mean ± SEM, %) Glu N2B / maximal potentiation Glu N2B: percent of response without compound; for pIC50 / pEC50: glutamate 100 μM, glycine 30 μM, Hill fit; for pIC50: read-out: IC50 Glu N2B; for pEC50: read-out: EC50 Glu N2B
GluN2B-containing NMDA receptors, sequence (Q13224 27-1484, other chains not shown): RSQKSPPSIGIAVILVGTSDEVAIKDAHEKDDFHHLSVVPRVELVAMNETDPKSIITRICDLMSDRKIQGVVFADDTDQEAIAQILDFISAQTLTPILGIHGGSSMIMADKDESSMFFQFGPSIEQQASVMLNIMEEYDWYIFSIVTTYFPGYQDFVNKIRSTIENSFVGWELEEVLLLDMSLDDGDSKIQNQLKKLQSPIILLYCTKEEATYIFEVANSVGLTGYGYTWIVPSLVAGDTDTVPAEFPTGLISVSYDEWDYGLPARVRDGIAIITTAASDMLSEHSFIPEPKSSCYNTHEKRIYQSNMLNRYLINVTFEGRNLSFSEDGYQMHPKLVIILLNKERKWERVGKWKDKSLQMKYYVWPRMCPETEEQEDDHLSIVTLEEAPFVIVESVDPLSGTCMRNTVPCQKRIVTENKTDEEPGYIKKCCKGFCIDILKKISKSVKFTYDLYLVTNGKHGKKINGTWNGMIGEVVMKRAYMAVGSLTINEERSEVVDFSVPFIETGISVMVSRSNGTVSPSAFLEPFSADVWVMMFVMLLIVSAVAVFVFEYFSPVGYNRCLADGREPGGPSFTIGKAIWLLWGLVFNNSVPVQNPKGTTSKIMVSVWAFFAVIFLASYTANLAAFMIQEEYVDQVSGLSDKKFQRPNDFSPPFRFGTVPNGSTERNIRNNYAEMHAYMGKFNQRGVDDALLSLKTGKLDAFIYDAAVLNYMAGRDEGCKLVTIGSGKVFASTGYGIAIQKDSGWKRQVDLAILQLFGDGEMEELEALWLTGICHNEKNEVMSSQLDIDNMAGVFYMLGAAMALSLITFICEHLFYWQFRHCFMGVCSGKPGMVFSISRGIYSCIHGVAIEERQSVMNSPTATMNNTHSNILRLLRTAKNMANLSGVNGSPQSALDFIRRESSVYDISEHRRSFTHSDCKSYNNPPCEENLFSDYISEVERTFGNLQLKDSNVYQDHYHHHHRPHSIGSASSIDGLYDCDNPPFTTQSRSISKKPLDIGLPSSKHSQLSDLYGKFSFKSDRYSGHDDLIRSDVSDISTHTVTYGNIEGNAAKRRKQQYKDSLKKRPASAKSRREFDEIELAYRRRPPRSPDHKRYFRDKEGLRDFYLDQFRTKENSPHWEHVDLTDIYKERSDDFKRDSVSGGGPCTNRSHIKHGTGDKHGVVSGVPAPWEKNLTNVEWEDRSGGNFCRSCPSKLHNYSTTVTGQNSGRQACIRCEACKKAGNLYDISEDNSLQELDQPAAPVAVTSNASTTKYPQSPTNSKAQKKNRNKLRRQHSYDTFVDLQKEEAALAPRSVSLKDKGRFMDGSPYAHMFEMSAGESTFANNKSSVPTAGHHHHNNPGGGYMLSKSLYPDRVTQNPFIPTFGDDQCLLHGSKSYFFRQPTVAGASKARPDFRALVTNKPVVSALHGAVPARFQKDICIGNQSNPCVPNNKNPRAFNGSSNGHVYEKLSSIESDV
Protocol: (§1) Xenopus laevis oocytes were injected with cRNA encoding the NMDA receptor subunits. Two to seven days after injection, two-electrode voltage-clamp recordings were performed. Extracellular solutions were made from a solutions containing (in mM) 90 NaCl, 3 KCl, 10 HEPES, 0.5 BaCl2, 0.01 EDTA (pH 7.4 with NaOH). Voltage and current electrodes were filled with 0.3 M and 3.0 M KCl, respectively.
(§2) Potency was determined by adding increasing concentrations of test compound to saturating concentrations of glutamate (100 μM) and glycine (30 μM), and the response amplitude measured. The response in the presence of each concentration of test compound plus agonists was expressed as a percent of the response in the absence of test compound.

[2] = target: GluN2C-containing NMDA receptors (Homo sapiens, UniProt Q14957); assay: Two-electrode voltage-clamp recordings from Xenopus laevis oocytes, GluN2C; settings: for I10 μM/ICONTROL (mean ± SEM, %) Glu N2C: 10 μM test compound with glutamate 100 μM and glycine 30 μM, Tables 1-5; for I10 μM/ICONTROL (mean ± SEM, %) Glu N2C / maximal potentiation Glu N2C: percent of response without compound; for pIC50 / pEC50: glutamate 100 μM, glycine 30 μM, Hill fit; for pIC50: read-out: IC50 Glu N2C; for pEC50: read-out: EC50 Glu N2C
GluN2C-containing NMDA receptors, sequence (Q14957 20-1233, other chains not shown): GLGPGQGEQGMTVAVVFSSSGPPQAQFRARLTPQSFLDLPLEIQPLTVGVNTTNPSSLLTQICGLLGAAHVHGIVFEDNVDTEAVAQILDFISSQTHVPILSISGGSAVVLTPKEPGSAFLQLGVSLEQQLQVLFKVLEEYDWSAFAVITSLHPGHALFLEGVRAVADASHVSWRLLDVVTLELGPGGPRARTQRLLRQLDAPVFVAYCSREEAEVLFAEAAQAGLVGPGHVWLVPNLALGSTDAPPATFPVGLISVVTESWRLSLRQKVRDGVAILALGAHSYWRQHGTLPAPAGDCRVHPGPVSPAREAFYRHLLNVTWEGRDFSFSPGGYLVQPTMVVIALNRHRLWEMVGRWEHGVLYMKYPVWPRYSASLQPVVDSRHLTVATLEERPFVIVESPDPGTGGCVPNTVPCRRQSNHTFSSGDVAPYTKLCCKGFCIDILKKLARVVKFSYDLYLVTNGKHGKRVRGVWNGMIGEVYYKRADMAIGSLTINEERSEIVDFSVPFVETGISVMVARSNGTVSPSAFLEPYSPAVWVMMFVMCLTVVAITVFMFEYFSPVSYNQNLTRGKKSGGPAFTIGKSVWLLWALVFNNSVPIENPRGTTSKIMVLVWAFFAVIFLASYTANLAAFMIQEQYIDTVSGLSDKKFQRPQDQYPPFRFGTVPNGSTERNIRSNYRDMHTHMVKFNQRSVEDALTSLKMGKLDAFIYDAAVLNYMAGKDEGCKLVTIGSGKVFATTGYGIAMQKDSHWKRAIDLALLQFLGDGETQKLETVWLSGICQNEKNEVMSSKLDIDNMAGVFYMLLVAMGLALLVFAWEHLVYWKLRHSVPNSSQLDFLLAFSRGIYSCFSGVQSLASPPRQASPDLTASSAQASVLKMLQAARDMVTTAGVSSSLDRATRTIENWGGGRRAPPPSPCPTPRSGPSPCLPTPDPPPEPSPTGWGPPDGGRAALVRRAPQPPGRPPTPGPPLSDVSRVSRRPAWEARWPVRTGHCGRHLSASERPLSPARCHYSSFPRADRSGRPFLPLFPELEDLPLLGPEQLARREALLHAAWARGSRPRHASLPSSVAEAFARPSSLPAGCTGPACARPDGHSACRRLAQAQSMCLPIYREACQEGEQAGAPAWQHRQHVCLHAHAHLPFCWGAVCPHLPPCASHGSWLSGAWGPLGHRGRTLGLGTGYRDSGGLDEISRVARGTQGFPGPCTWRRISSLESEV
Protocol: as §1, §2

[3] = target: GluN2D-containing NMDA receptors (Homo sapiens, UniProt O15399); assay: Two-electrode voltage-clamp recordings from Xenopus laevis oocytes, GluN2D; settings: for I10 μM/ICONTROL (mean ± SEM, %) Glu N2D: 10 μM test compound with glutamate 100 μM and glycine 30 μM, Tables 1-5; for I10 μM/ICONTROL (mean ± SEM, %) Glu N2D / maximal potentiation Glu N2D: percent of response without compound; for pIC50 / pEC50: glutamate 100 μM, glycine 30 μM, Hill fit; for pIC50: read-out: IC50 Glu N2D; for pEC50: read-out: EC50 Glu N2D
GluN2D-containing NMDA receptors, sequence (O15399 28-1336, other chains not shown): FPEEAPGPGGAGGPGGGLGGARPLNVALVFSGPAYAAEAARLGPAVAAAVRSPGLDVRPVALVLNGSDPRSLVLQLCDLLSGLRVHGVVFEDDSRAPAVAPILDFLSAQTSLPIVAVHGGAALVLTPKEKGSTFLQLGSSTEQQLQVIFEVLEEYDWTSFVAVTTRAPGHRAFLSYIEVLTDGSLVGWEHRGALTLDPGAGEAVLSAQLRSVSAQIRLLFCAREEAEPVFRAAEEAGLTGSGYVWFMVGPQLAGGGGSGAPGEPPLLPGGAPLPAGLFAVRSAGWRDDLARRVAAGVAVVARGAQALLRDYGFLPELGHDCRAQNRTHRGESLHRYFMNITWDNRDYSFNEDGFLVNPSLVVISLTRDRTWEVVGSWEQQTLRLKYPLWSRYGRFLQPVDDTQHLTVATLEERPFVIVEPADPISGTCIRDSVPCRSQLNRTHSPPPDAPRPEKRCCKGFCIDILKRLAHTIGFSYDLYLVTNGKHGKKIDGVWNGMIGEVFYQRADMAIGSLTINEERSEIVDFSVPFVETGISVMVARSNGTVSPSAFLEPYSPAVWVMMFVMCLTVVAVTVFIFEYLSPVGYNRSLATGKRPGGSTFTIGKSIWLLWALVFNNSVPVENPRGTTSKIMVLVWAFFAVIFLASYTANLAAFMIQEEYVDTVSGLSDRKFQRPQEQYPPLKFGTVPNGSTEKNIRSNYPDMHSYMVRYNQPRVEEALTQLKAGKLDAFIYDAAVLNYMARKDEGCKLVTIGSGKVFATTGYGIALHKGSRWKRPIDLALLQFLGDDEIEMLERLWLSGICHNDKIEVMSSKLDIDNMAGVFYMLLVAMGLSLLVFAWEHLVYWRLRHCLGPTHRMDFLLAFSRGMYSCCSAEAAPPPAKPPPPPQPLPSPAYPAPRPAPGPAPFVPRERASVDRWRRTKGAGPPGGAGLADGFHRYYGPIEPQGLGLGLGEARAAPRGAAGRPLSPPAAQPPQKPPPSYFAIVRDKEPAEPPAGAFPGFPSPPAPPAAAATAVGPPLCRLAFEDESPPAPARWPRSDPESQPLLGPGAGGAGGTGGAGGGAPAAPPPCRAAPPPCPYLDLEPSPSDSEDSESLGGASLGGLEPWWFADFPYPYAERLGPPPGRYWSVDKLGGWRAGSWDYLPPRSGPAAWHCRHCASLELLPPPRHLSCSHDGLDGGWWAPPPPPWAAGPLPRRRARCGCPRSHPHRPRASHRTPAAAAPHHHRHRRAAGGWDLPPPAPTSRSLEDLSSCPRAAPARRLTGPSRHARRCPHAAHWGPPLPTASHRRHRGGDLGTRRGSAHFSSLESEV
Protocol: as §1, §2

[4] = Table 2, in brackets below IC50
[5] = Table 1, in brackets after EC50

SMILES	I10 μM/ICONTROL (mean ± SEM, %) Glu N2B [1] [%]	I10 μM/ICONTROL (mean ± SEM, %) Glu N2C [2] [%]	I10 μM/ICONTROL (mean ± SEM, %) Glu N2D [3] [%]	other results
Cc1sc2ncn(CC(=O)O)c(=O)c2c1-c1cccc(Cl)c1 [1 / 3-Cl—Ph / Me / OH]	93 ± 1.2	93 ± 1.4	89 ± 1.4	
Cc1sc2ncn(CC(=O)Oc3ccccc3)c(=O)c2c1-c1cccc(Cl)c1 [1 / 3-Cl—Ph / Me / OPh]	96 ± 2.6	110 ± 5.9	89 ± 1.6	
CCSC(=O)Cn1cnc2sc(C)c(-c3cccc(Cl)c3)c2c1=O [1 / 3-Cl—Ph / Me / SEt]	95 ± 0.9	95 ± 2.8	90 ± 1.3	
Cc1sc2ncn(CC(=O)SC(C)(C)C)c(=O)c2c1-c1cccc(Cl)c1 [1 / 3-Cl—Ph / Me / StBu]	92 ± 4.6	87 ± 4.0	73 ± 2.6	
Cc1sc2ncn(CC(=O)c3cccs3)c(=O)c2c1-c1cccc(I)c1 [1 / 3-I—Ph / Me / 2-thiophene]	129 ± 4.5	180 ± 10.7	177 ± 7.0	pIC50 ([1]; Table 2): 5.11; maximal potentiation Glu N2B [1, 4]: (147) %; pIC50 ([2]; Table 2): 5.03; maximal potentiation Glu N2C [2, 4]: (255) %; pIC50 ([3]; Table 2): 4.96; maximal potentiation Glu N2D [3, 4]: (262) %
COc1cccc(C(=O)Cn2cnc3sc(C)c(-c4cccc(I)c4)c3c2=O)c1 [1 / 3-I—Ph / Me / 3-OMe—Ph]	107 ± 3.0	107 ± 4.9	99 ± 4.3	
COc1ccc(C(=O)Cn2cnc3sc(C)c(-c4cccc(I)c4)c3c2=O)cc1 [1 / 3-I—Ph / Me / 4-OMe—Ph]	84 ± 5.2	94 ± 1.94	94 ± 1.1	
Cc1sc2ncn(CC(=O)OC(C)(C)C)c(=O)c2c1-c1cccc(I)c1 [1 / 3-I—Ph / Me / OtBu]	87 ± 3.9	101 ± 6.8	94 ± 4.3	
Cc1sc2ncn(CC(=O)c3ccccc3)c(=O)c2c1-c1cccc(I)c1 [1 / 3-I—Ph / Me / Ph]	139 ± 3.9	161 ± 10.9	133 ± 3.1	pIC50 ([1]; Table 2): 5.10; maximal potentiation Glu N2B [1, 4]: (169) %; pIC50 ([2]; Table 2): 4.82; maximal potentiation Glu N2C [2, 4]: (273) %; pIC50 ([3]; Table 2): 4.39; maximal potentiation Glu N2D [3, 4]: (305) %
Cc1sc2ncn(CC(=O)N(C)C)c(=O)c2c1-c1ccc(Br)cc1 [1 / 4-Br—Ph / Me / —N(Me)2]	92 ± 1.7	109 ± 3.1	105 ± 1.8	
Cc1sc2ncn(CC(=O)N3CCCC3)c(=O)c2c1-c1ccc(Cl)cc1 [1 / 4-Cl—Ph / Me / —Npyrrolidine]				pIC50 ([1]; Table 2): 4.96; maximal potentiation Glu N2B [1, 4]: (223) %; pIC50 ([2]; Table 2): 4.82; maximal potentiation Glu N2C [2, 4]: (347) %; pIC50 ([3]; Table 2): 4.64; maximal potentiation Glu N2D [3, 4]: (381) %
O=C(Cn1cnc2sc3c(c2c1=O)CCCC3)c1ccc(Cl)cc1Cl [2,4-Cl]	91 ± 3.6	106 ± 4.4	97 ± 1.8	
COc1ccc(C(=O)Cn2cnc3sc4c(c3c2=O)CCCC4)c(OC)c1 [2,4-OMe]	95 ± 1.8	94 ± 1.4	90 ± 0.7	
Cc1ccc(-c2c(C)sc3ncn(CC(=O)N4CCCC4)c(=O)c23)cc1C [3,4-Me—Ph / Me]				pEC50 ([1]; Table 1): 5.10; maximal potentiation Glu N2B [1, 5]: 192%; pEC50 ([2]; Table 1): 4.57; maximal potentiation Glu N2C [2, 5]: 267%; pEC50 ([3]; Table 1): 4.74; maximal potentiation Glu N2D [3, 5]: 229%

The next lines start with results.

I10 μM/ICONTROL (mean ± SEM, %) Glu N2B [1] [%]	I10 μM/ICONTROL (mean ± SEM, %) Glu N2C [2] [%]	I10 μM/ICONTROL (mean ± SEM, %) Glu N2D [3] [%]	SMILES	other results
96 ± 2.1	104 ± 2.5	104 ± 0.6	CCOC(=O)CNC(=O)Cn1cnc2sc(C)c(-c3ccc(Br)cc3)c2c1=O [1 / 4-Br—Ph / Me / —NHCH2COOEt]	
87 ± 1.3	105 ± 3.7	93 ± 1.8	Cc1sc2ncn(CC(=O)NCC(=O)O)c(=O)c2c1-c1ccc(Cl)cc1 [1 / 4-Cl—Ph / Me / —NHCH2COOH]	
89 ± 1.7	104 ± 2.3	97 ± 1.9	Cc1sc2ncn(CC(=O)N3CCC[C@H]3C(=O)O)c(=O)c2c1-c1ccc(Cl)cc1 [1 / 4-Cl—Ph / Me / —Nproline (S)]	
107 ± 2.3	91 ± 2.5	97 ± 1.6	CCOC(=O)CCn1cnc2sc(C)c(-c3cccc(Cl)c3)c2c1=O [2 / 3-Cl—Ph / Me / OEt]	
99 ± 0.6	89 ± 6.2	97 ± 1.1	Cc1sc2ncn(CCC(=O)O)c(=O)c2c1-c1cccc(Cl)c1 [2 / 3-Cl—Ph / Me / OH]	
104 ± 3.6	91 ± 1.1	88 ± 2.4	Cc1sc2ncn(CCC(=O)Oc3ccccc3)c(=O)c2c1-c1cccc(Cl)c1 [2 / 3-Cl—Ph / Me / OPh]	
95 ± 1.7	99 ± 5.0	90 ± 1.7	Cc1sc2ncn(CCC(=O)N3CCCC3)c(=O)c2c1-c1cccc(Cl)c1 [2 / 3-Cl—Ph / Me / —Npyrrolidine]	
93 ± 2.0	95 ± 2.1	94 ± 1.4	Cc1sc2ncn(CC(=O)N3CCCC3)c(=O)c2c1-c1ccccc1C(F)(F)F [2-CF3—Ph / Me]	
176 ± 6.2	185 ± 11.4	165 ± 3.4	Cc1sc2ncn(CC(=O)N3CCCC3)c(=O)c2c1-c1ccc2c(c1)CCC2 [3,4-(CH2)3—Ph / Me]	pEC50 ([1]; Table 1): 4.94; maximal potentiation Glu N2B [1, 5]: 275%; pEC50 ([2]; Table 1): 4.59; maximal potentiation Glu N2C [2, 5]: 475%; pEC50 ([3]; Table 1): 4.32; maximal potentiation Glu N2D [3, 5]: 580%
188 ± 9.3	281 ± 17.7	292 ± 13.7	Cc1sc2ncn(CC(=O)N3CCCC3)c(=O)c2c1-c1ccc(Br)c(Br)c1 [3,4-Br—Ph / Me]	pEC50 ([1]; Table 1): 5.28; maximal potentiation Glu N2B [1, 5]: 223%; pEC50 ([2]; Table 1): 4.89; maximal potentiation Glu N2C [2, 5]: 561%; pEC50 ([3]; Table 1): 4.52; maximal potentiation Glu N2D [3, 5]: 1205%
156 ± 5.2	195 ± 6.9	230 ± 13.5	Cc1sc2ncn(CC(=O)N3CCCC3)c(=O)c2c1-c1cc(Br)cc(Br)c1 [3,5-Br—Ph / Me]	pEC50 ([1]; Table 1): 5.97; maximal potentiation Glu N2B [1, 5]: 143%; pEC50 ([2]; Table 1): 5.66; maximal potentiation Glu N2C [2, 5]: 195%; pEC50 ([3]; Table 1): 5.41; maximal potentiation Glu N2D [3, 5]: 202%
101 ± 4.5	115 ± 5.5	103 ± 1.1	Cc1sc2ncn(CC(=O)N3CCCC3)c(=O)c2c1-c1cc(C(F)(F)F)cc(C(F)(F)F)c1 [3,5-CF3—Ph / Me]	
107 ± 2.7	114 ± 0.9	116 ± 4.4	Cc1sc2ncn(CC(=O)N3CCCC3)c(=O)c2c1-c1cc(F)cc(F)c1 [3,5-F—Ph / Me]	pEC50 ([1]; Table 1): 4.02; maximal potentiation Glu N2B [1, 5]: 229%; pEC50 ([2]; Table 1): 3.88; maximal potentiation Glu N2C [2, 5]: 458%; pEC50 ([3]; Table 1): 3.69; maximal potentiation Glu N2D [3, 5]: 748%
152 ± 8.8	167 ± 9.6	151 ± 6.3	Cc1sc2ncn(CC(=O)N3CCCC3)c(=O)c2c1-c1cc(I)cc(I)c1 [3,5-I—Ph / Me]	pEC50 ([1]; Table 1): 4.70; maximal potentiation Glu N2B [1, 5]: 259%; pEC50 ([2]; Table 1): 4.46; maximal potentiation Glu N2C [2, 5]: 493%; pEC50 ([3]; Table 1): 4.49; maximal potentiation Glu N2D [3, 5]: 432%
110 ± 2.6	113 ± 5.8	108 ± 6.2	Cc1sc2ncn(CC(=O)N3CCCC3)c(=O)c2c1-c1cccc(-n2cncn2)c1 [3-1,2,4 triazolyl-Ph / Me]	pEC50 ([1]; Table 1): 3.53; maximal potentiation Glu N2B [1, 5]: 402%; pEC50 ([2]; Table 1): 4.36; maximal potentiation Glu N2C [2, 5]: 308%; pEC50 ([3]; Table 1): 3.97; maximal potentiation Glu N2D [3, 5]: 239%
